Assay results reported in BigSolDB 2.1.

O=C1c2ccccc2-c2ccccc21
solubility (mole fraction)
Conditions | in diisopropyl ether | in ethanol | in ethyl acetate | in n-butanol | in tetrachloromethane | in toluene
283.15 K | 0.0297 | 0.0209 | 0.123 | 0.0267 | 0.114 | 0.12
288.15 K | 0.0356 | 0.0241 | 0.142 | 0.0321 | 0.142 | 0.142
293.15 K | 0.0426 | 0.0301 | 0.173 | 0.0402 | 0.158 | 0.164
298.15 K | 0.0541 | 0.043 | 0.221 | 0.0498 | 0.192 | 0.197
303.15 K | 0.0642 | 0.0562 | 0.244 | 0.0685 | 0.241 | 0.228
308.15 K | 0.0815 | 0.0976 | 0.284 | 0.0848 | 0.291 | 0.264
313.15 K | 0.108 | 0.144 | 0.335 | 0.126 | 0.347 | 0.315
318.15 K | 0.137 | 0.207 | 0.395 | 0.162 | 0.403 | 0.371
323.15 K | 0.18 | 0.292 | 0.465 | 0.236 | 0.462 | 0.41
328.15 K | 0.228 | 0.409 | 0.548 | 0.311 | 0.519 | 0.485
333.15 K | 0.309 | 0.548 | 0.63 | 0.4 | 0.582 | 0.55

c1ccc2c(c1)oc1ccccc12
solubility (mole fraction)
Conditions | in diisopropyl ether | in ethanol | in ethyl acetate | in n-butanol | in tetrachloromethane | in toluene
283.15 K | 0.0838 | 0.0211 | 0.145 | 0.0281 | 0.134 | 0.158
288.15 K | 0.104 | 0.0271 | 0.168 | 0.0326 | 0.161 | 0.185
293.15 K | 0.13 | 0.0322 | 0.199 | 0.0421 | 0.191 | 0.223
298.15 K | 0.155 | 0.0414 | 0.232 | 0.0531 | 0.216 | 0.266
303.15 K | 0.183 | 0.0489 | 0.269 | 0.0671 | 0.264 | 0.301
308.15 K | 0.237 | 0.0707 | 0.328 | 0.0877 | 0.307 | 0.344
313.15 K | 0.284 | 0.102 | 0.387 | 0.107 | 0.354 | 0.399
318.15 K | 0.341 | 0.134 | 0.441 | 0.166 | 0.412 | 0.455
323.15 K | 0.412 | 0.197 | 0.502 | 0.23 | 0.491 | 0.514
328.15 K | 0.508 | 0.283 | 0.565 | 0.364 | 0.548 | 0.582
333.15 K | 0.58 | 0.334 | 0.625 | 0.514 | 0.635 | 0.624
